In US9999222B2, “Herbicidal combination comprising azines” (BASF SE, priority 2014, dated 2018):
Where “and” joins values, the source holds several entries; their conditions need not be identical. Identical values can stand only once. Like-named read-outs stand apart in the source and are kept apart here.

Tests used:
Assay in all cases: Greenhouse test, pre-emergence treatment
AVEFA = type: in vivo, Avena fatua; conditions: Avena fatua, pre-emergence, 480 h, pre-emergence, read-out: observed % activity 20 DAT
How it was run: (§1)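 Seeds were sown in loamy sand with approximately 3.0% humus, then sprayed at once with actives suspended or emulsified in water. Pots were watered, hooded until rooting, held at 10-25° C. or 20-35° C. by species for 2 to 4 weeks, and scored 0 (no damage) to 100 (no emergence/complete destruction).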

PHACA = type: in vivo, Phalaris canariensis; conditions: Phalaris canariensis, pre-emergence, 480 h, pre-emergence, read-out: observed % activity 20 DAT
How it was run: as §1

LOLMU = type: in vivo, Lolium multiflorum; conditions: pre-emergence, pre-emergence
How it was run: as §1

EPHHL = type: in vivo, Euphorbia heterophylla; conditions: pre-emergence
How it was run: as §1

POLCO = type: in vivo, Polygonum convolvulus; conditions: pre-emergence
How it was run: as §1

GERPU = type: in vivo, Geranium pusillum; conditions: pre-emergence
How it was run: as §1

GALAP = type: in vivo, Galium aparine; conditions: pre-emergence
How it was run: as §1

ALOMY = type: in vivo, Alopecurus myosuroides; conditions: pre-emergence, pre-emergence
How it was run: as §1

COMBE = type: in vivo, Commelina benghalensis; conditions: pre-emergence
How it was run: as §1

IPOHE = type: in vivo, Ipomoea hederacea
How it was run: as §1

SIDRH = type: in vivo, Sida rhombifolia; conditions: pre-emergence
How it was run: as §1

ECHCG = type: in vivo, Echinocloa crus-galli
How it was run: as §1

BRADC = type: in vivo, Brachiaria decumbens; conditions: pre-emergence, pre-emergence
How it was run: as §1

KCHSC = type: in vivo, Kochia scoparia; conditions: pre-emergence
How it was run: as §1

[1] = Lolium multiflorum, 480 h, 2 g ai/ha, read-out: observed % activity 20 DAT
[2] = Lolium multiflorum, 480 h, 8 g ai/ha, read-out: observed % activity 20 DAT
[3] = Euphorbia heterophylla, 480 h, 8 g ai/ha, read-out: observed % activity 20 DAT
[4] = Fallopia convolvulus, 480 h, 4 g ai/ha, read-out: observed % activity 20 DAT
[5] = Galium aparine, 480 h, 4 g ai/ha, read-out: observed % activity 20 DAT
[6] = Galium aparine, 480 h, 8 g ai/ha, read-out: observed % activity 20 DAT
[7] = Alopecurus myosuroides, 480 h, 2 g ai/ha, read-out: observed % activity 20 DAT
[8] = Commelina benghalensis, 480 h, 4 g ai/ha, read-out: observed % activity 20 DAT
[9] = Ipomoea hederacea, 480 h, 4 g ai/ha, read-out: observed % activity 20 DAT
[10] = Sida rhombifolia, 480 h, 8 g ai/ha, read-out: observed % activity 20 DAT
[11] = Echinochloa crus-galli, 480 h, 4 g ai/ha, read-out: observed % activity 20 DAT
[12] = Bassia scoparia, 480 h, 4 g ai/ha, read-out: observed % activity 20 DAT
[13] = Bassia scoparia, 480 h, 8 g ai/ha, read-out: observed % activity 20 DAT

Compound: Nc1nc(Nc2c(F)c(F)cc(F)c2F)nc(C2(F)CCCC2)n1 [compound 9, 6-(1-fluorocyclopentyl)-N4-(2,3,5,6-tetrafluorophenyl)-1,3,5-triazine-2,4-diamine]
- inhibition at 2 g/ha (AVEFA; 2 g ai/ha): 0%
- inhibition at 8 g/ha (AVEFA; 8 g ai/ha): 0%
- inhibition at 2 g/ha (PHACA; 2 g ai/ha): 0%
- pest or weed control at 2 g/ha (PHACA; 2 g ai/ha): 0%
- inhibition at 8 g/ha (PHACA; 8 g ai/ha): 50%
- pest or weed control at 8 g/ha (PHACA; 8 g ai/ha): 70%
- inhibition at 2 g/ha (LOLMU; [1]): 0%
- pest or weed control at 2 g/ha (LOLMU; [1]): 0%
- inhibition at 8 g/ha (LOLMU; [2]): 75%
- pest or weed control at 8 g/ha (LOLMU; [2]): 75%
- observed % activity 20 DAT (LOLMU; 8 g ai/ha): 80%
- observed % activity 20 DAT (EPHHL; EPHHL, individual, use rate 8 g ai/ha): 30%
- inhibition at 8 g/ha (EPHHL; Euphorbia heterophylla, 480 h, EPHHL, individual, use rate 8 g ai/ha, read-out: observed % activity 20 DAT): 25%
- inhibition at 16 g/ha (EPHHL; Euphorbia heterophylla, 480 h, EPHHL, individual, use rate 16 g ai/ha, read-out: observed % activity 20 DAT): 15%
- pest or weed control at 4 g/ha (EPHHL; Euphorbia heterophylla, 480 h, 4 g ai/ha, read-out: observed % activity 20 DAT): 25%
- inhibition at 8 g/ha (EPHHL; [3]): 10%
- pest or weed control at 8 g/ha (EPHHL; [3]): 10%
- inhibition at 16 g/ha (EPHHL; Euphorbia heterophylla, 480 h, 16 g ai/ha, read-out: observed % activity 20 DAT): 20%
- pest or weed control at 4 g/ha (POLCO; [4]): 20%
- pest or weed control at 8 g/ha (POLCO; Fallopia convolvulus, 480 h, 8 g ai/ha, read-out: observed % activity 20 DAT): 80%
- inhibition at 8 g/ha (POLCO; Fallopia convolvulus, 480 h, POLCO, individual, use rate 8 g ai/ha, read-out: observed % activity 20 DAT): 50%
- inhibition at 16 g/ha (POLCO; Fallopia convolvulus, 480 h, POLCO, individual, use rate 16 g ai/ha, read-out: observed % activity 20 DAT): 70%
- inhibition at 4 g/ha (POLCO; [4]): 20%
- inhibition at 16 g/ha (POLCO; Fallopia convolvulus, 480 h, 16 g ai/ha, read-out: observed % activity 20 DAT): 80%
- observed % activity 20 DAT (POLCO; 8 g ai/ha): 75%
- observed % activity 20 DAT (GERPU; GERPU, individual, use rate 16 g ai/ha): 30% and 60%
- inhibition at 8 g/ha (GERPU; Geranium pusillum, 480 h, GERPU, individual, use rate 8 g ai/ha, read-out: observed % activity 20 DAT): 40%
- pest or weed control at 4 g/ha (GERPU; Geranium pusillum, 480 h, 4 g ai/ha, read-out: observed % activity 20 DAT): 20%
- inhibition at 8 g/ha (GERPU; Geranium pusillum, 480 h, 8 g ai/ha, read-out: observed % activity 20 DAT): 40%
- observed % activity 20 DAT (GERPU; 16 g ai/ha): 60% and 30%
- observed % activity 20 DAT (GALAP; GALAP, individual, use rate 8 g ai/ha): 50%
- pest or weed control at 4 g/ha (GALAP; [5]): 55%
- pest or weed control at 8 g/ha (GALAP; [6]): 90%
- inhibition at 8 g/ha (GALAP; Galium aparine, 480 h, GALAP, individual, use rate 8 g ai/ha, read-out: observed % activity 20 DAT): 70%
- inhibition at 16 g/ha (GALAP; Galium aparine, 480 h, GALAP, individual, use rate 16 g ai/ha, read-out: observed % activity 20 DAT): 60%
- inhibition at 4 g/ha (GALAP; [5]): 55%
- inhibition at 8 g/ha (GALAP; [6]): 70%
- inhibition at 16 g/ha (GALAP; Galium aparine, 480 h, 16 g ai/ha, read-out: observed % activity 20 DAT): 60%
- inhibition at 2 g/ha (ALOMY; [7]): 75%
- pest or weed control at 2 g/ha (ALOMY; [7]): 75%
- pest or weed control at 8 g/ha (ALOMY; Alopecurus myosuroides, 480 h, 8 g ai/ha, read-out: observed % activity 20 DAT): 98%
- observed % activity 20 DAT (ALOMY; 2 g ai/ha): 70%
- observed % activity 20 DAT (ALOMY; 4 g ai/ha): 45%
- observed % activity 20 DAT (COMBE; COMBE, individual, use rate 16 g ai/ha): 35% and 15%
- pest or weed control at 4 g/ha (COMBE; [8]): 25%
- pest or weed control at 8 g/ha (COMBE; Commelina benghalensis, 480 h, 8 g ai/ha, read-out: observed % activity 20 DAT): 65%
- inhibition at 8 g/ha (COMBE; Commelina benghalensis, 480 h, COMBE, individual, use rate 8 g ai/ha, read-out: observed % activity 20 DAT): 20%
- inhibition at 4 g/ha (COMBE; [8]): 25%
- inhibition at 16 g/ha (COMBE; Commelina benghalensis, 480 h, 16 g ai/ha, read-out: observed % activity 20 DAT): 20%
- observed % activity 20 DAT (COMBE; 16 g ai/ha): 35%
- observed % activity 20 DAT (IPOHE; 16 g ai/ha): 15%
- observed % activity 20 DAT (IPOHE; IPOHE, individual, use rate 16 g ai/ha): 15%
- inhibition at 4 g/ha (IPOHE; [9]): 0%
- pest or weed control at 4 g/ha (IPOHE; [9]): 0%
- inhibition at 16 g/ha (IPOHE; Ipomoea hederacea, 480 h, 16 g ai/ha, read-out: observed % activity 20 DAT): 10%
- inhibition at 16 g/ha (IPOHE; Ipomoea hederacea, 480 h, IPOHE, individual, use rate 16 g ai/ha, read-out: observed % activity 20 DAT): 10%
- observed % activity 20 DAT (SIDRH; SIDRH, individual, use rate 8 g ai/ha): 15%
- observed % activity 20 DAT (SIDRH; SIDRH, individual, use rate 16 g ai/ha): 55%
- pest or weed control at 4 g/ha (SIDRH; Sida rhombifolia, 480 h, 4 g ai/ha, read-out: observed % activity 20 DAT): 10%
- pest or weed control at 8 g/ha (SIDRH; [10]): 10%
- inhibition at 8 g/ha (SIDRH; Sida rhombifolia, 480 h, SIDRH, individual, use rate 8 g ai/ha, read-out: observed % activity 20 DAT): 25%
- inhibition at 8 g/ha (SIDRH; [10]): 25%
- inhibition at 16 g/ha (SIDRH; Sida rhombifolia, 480 h, 16 g ai/ha, read-out: observed % activity 20 DAT): 30%
- observed % activity 20 DAT (ECHCG; 2 g ai/ha): 70%
- inhibition at 2 g/ha (ECHCG; Echinochloa crus-galli, 480 h, 2 g ai/ha, read-out: observed % activity 20 DAT): 75%
- inhibition at 4 g/ha (ECHCG; [11]): 90%
- pest or weed control at 4 g/ha (ECHCG; [11]): 85%
- inhibition at 2 g/ha (BRADC; Urochloa decumbens, 480 h, 2 g ai/ha, read-out: observed % activity 20 DAT): 20%
- inhibition at 4 g/ha (BRADC; Urochloa decumbens, 480 h, 4 g ai/ha, read-out: observed % activity 20 DAT): 55%
- inhibition at 8 g/ha (BRADC; Urochloa decumbens, 480 h, 8 g ai/ha, read-out: observed % activity 20 DAT): 35%
- observed % activity 20 DAT (BRADC; 4 g ai/ha): 40%
- pest or weed control at 4 g/ha (KCHSC; [12]): 50%
- pest or weed control at 8 g/ha (KCHSC; [13]): 85%
- inhibition at 7 g/ha (KCHSC; Bassia scoparia, 480 h, KCHSC, individual, use rate 7 g ai/ha, read-out: observed % activity 20 DAT): 75%
- inhibition at 8 g/ha (KCHSC; Bassia scoparia, 480 h, KCHSC, individual, use rate 8 g ai/ha, read-out: observed % activity 20 DAT): 90%
- inhibition at 16 g/ha (KCHSC; Bassia scoparia, 480 h, KCHSC, individual, use rate 16 g ai/ha, read-out: observed % activity 20 DAT): 90%
- inhibition at 4 g/ha (KCHSC; [12]): 70%
- inhibition at 8 g/ha (KCHSC; [13]): 75%
- inhibition at 16 g/ha (KCHSC; Bassia scoparia, 480 h, 16 g ai/ha, read-out: observed % activity 20 DAT): 90%
- observed % activity 20 DAT (KCHSC; KCHSC, individual, use rate 16 g ai/ha): 80%
- observed % activity 20 DAT (KCHSC; 16 g ai/ha): 80%
